27 molecules from US9493446B2, “Orexin receptor antagonists which are [ortho bi-(hetero-)aryl]-[2-(meta bi-(hetero-)aryl)-pyrrolidin-1-yl]-methanone derivatives” (Actelion Pharmaceuticals Ltd, priority 2012, dated 2016) can be followed below.

Assay [1] concerns the target orexin-1 (Homo sapiens (Human), UniProt O43613). As to the kind of experiment: Intracellular calcium measurement (FLIPR), CHO cells expressing human orexin-1 receptor, 3 nM orexin-A. Type of assay: cell-based. The settings on record: CHO cells expressing human orexin-1 receptor, FLIPR, 3 nM orexin-A; geometric mean if determined several times; read-out: IC50 OX1. An outline of the steps: (§1)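 Antagonist is added 120 min before agonist. Fluo-4 AM-loaded CHO cells carry human orexin-1 or orexin-2 receptor, and calcium is read by FLIPR.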

Assay [2] addresses human orexin-2 receptor (Homo sapiens (Human), UniProt O43614). Description: Intracellular calcium measurement (FLIPR), CHO cells expressing human orexin-2 receptor, 3 nM orexin-A. The settings on record: read-out: IC50 OX2. Type of assay: cell-based. An outline of the steps:
as §1
(In general: Calcium assays in cells follow changes in intracellular calcium, usually with a dye or a luminescent sensor.)

Where [3] appears, read: CHO cells expressing human orexin-2 receptor, FLIPR, 3 nM orexin-A, geometric mean if determined several times.

As usually defined, the IC50 is the point on the concentration scale where inhibition reaches its midpoint.

Read-outs that look alike come from different tables or passages of the source.

Chain of human orexin-2 receptor (O43614 whole entry): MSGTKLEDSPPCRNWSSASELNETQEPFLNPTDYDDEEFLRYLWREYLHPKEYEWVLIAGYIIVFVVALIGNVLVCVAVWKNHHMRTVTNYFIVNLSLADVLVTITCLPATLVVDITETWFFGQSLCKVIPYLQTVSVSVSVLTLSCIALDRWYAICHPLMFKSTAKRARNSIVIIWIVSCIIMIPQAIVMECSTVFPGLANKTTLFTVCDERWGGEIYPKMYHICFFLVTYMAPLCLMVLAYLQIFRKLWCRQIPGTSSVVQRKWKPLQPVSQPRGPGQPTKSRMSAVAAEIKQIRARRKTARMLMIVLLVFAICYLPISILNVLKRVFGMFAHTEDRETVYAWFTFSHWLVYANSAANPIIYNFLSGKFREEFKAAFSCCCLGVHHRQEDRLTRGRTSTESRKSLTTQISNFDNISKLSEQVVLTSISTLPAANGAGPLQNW
Chain of orexin-1 (O43613 whole entry): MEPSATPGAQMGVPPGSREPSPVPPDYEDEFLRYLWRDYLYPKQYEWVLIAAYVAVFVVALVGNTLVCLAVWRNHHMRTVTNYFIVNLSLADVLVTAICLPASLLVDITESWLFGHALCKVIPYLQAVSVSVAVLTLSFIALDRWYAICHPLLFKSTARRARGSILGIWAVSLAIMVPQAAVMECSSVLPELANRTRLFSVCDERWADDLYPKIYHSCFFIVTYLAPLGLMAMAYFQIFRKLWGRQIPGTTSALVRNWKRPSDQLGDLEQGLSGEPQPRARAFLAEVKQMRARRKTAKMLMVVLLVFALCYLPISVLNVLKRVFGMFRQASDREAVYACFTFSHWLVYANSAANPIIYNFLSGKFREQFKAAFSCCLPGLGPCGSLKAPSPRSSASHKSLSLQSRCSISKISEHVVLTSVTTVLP

With `COCc1ccccc1-c1noc([C@@H]2CCCN2C(=O)c2cc(C)ccc2-n2nccn2)n1` [compound 44, {(S)-2-[3-(2-Methoxymethyl-phenyl)-[1,2,4]oxadiazol-5-yl]-pyrrolidin-1-yl}-(5-methyl-2-[1,2,3]triazol-2-yl-phenyl)-methanone], the IC50 in assay [1] turned out to be 0.11 µM; in assay [2] (setting [3]), 0.014 µM.

For the molecule `CCCOc1ccccc1-c1noc([C@@H]2CCCN2C(=O)c2cc(C)ccc2-n2nccn2)n1` [compound 45], the concentration for half-maximal inhibition (IC50) in assay [1] turned out to be 0.112 µM; in assay [2] (setting [3]) it was 0.125 µM.

Take `Cc1ccc(-n2nccn2)c(C(=O)N2CCC[C@H]2c2nc(-c3cccc4cc[nH]c34)no2)c1` [compound 46, {(S)-2-[3-(1H-Indol-7-yl)-[1,2,4]oxadiazol-5-yl]-pyrrolidin-1-yl}-(5-methyl-2-[1,2,3]triazol-2-yl-phenyl)-methanone]: the figures for the IC50 in assay [1] and in assay [2] (setting [3]) were 0.004 µM and 0.009 µM, respectively.

As for `COc1cc(OC)cc(-c2noc([C@@H]3CCCN3C(=O)c3cc(C)ccc3-n3nccn3)n2)c1` [compound 47, {(S)-2-[3-(3,5-Dimethoxy-phenyl)-[1,2,4]oxadiazol-5-yl]-pyrrolidin-1-yl}-(5-methyl-2-[1,2,3]triazol-2-yl-phenyl)-methanone], the concentration for half-maximal inhibition (IC50) stood at 0.316 µM in assay [1] and 0.09 µM in assay [2] (setting [3]).

For `Cc1ccc(-n2nccn2)c(C(=O)N2CCC[C@H]2c2nc(-c3cccnc3OC3CCC3)no2)c1` [compound 48, {(S)-2-[3-(2-Cyclobutoxy-pyridin-3-yl)-[1,2,4]oxadiazol-5-yl]-pyrrolidin-1-yl}-(5-methyl-2-[1,2,3]triazol-2-yl-phenyl)-methanone], the IC50 in assay [1] was determined as 0.045 µM; in assay [2] (setting [3]) it was 0.058 µM.

`Cc1ccc(-n2nccn2)c(C(=O)N2CCC[C@H]2c2nc(-c3cccnc3OC3CCCC3)no2)c1` [compound 49, {(S)-2-[3-(2-Cyclopentyloxy-pyridin-3-yl)-[1,2,4]oxadiazol-5-yl]-pyrrolidin-1-yl}-(5-methyl-2-[1,2,3]triazol-2-yl-phenyl)-methanone]: the values for the IC50 in assay [1] and in assay [2] (setting [3]) were 0.089 µM and 0.233 µM, respectively.

Regarding `Cc1ccc(-n2nccn2)c(C(=O)N2CCC[C@H]2c2nc(-c3c[nH]c4ncccc34)no2)c1` [compound 50, (5-Methyl-2-[1,2,3]triazol-2-yl-phenyl)-{(S)-2-[3-(1H-pyrrolo[2,3-b]pyridin-3-yl)-[1,2,4]oxadiazol-5-yl]-pyrrolidin-1-yl}-methanone], the IC50 in assay [1] is 0.131 µM; in assay [2] (setting [3]) it was 0.075 µM.

For the molecule `Cc1ccc(-n2nccn2)c(C(=O)N2CCC[C@H]2c2nc(-c3cn(C)c4ncccc34)no2)c1` [compound 51, {(S)-2-[3-(1-Methyl-1H-pyrrolo[2,3-b]pyridin-3-yl)-[1,2,4]oxadiazol-5-yl]-pyrrolidin-1-yl}-(5-methyl-2-[1,2,3]triazol-2-yl-phenyl)-methanone], the concentration for half-maximal inhibition (IC50) in assay [1] came out at 0.015 µM; in assay [2] (setting [3]), 0.011 µM.

For the molecule `Cc1ccc(-n2nccn2)c(C(=O)N2CCC[C@H]2c2nc(-c3cccc4c3OCO4)no2)c1` [compound 52, [(S)-2-(3-Benzo[1,3]dioxol-4-yl-[1,2,4]oxadiazol-5-yl)-pyrrolidin-1-yl]-(5-methyl-2-[1,2,3]triazol-2-yl-phenyl)-methanone], the IC50 in assay [1] was 0.182 µM; in assay [2] (setting [3]), 0.025 µM.

As to `CCc1ncccc1-c1noc([C@@H]2CCCN2C(=O)c2cc(C)ccc2-n2nccn2)n1` [compound 53, {(S)-2-[3-(2-Ethyl-pyridin-3-yl)-[1,2,4]oxadiazol-5-yl]-pyrrolidin-1-yl}-(5-methyl-2-[1,2,3]triazol-2-yl-phenyl)-methanone], the IC50 worked out at 0.315 µM in assay [1] and 0.097 µM in assay [2] (setting [3]).

For `Cc1ccc(-n2nccn2)c(C(=O)N2CCC[C@H]2c2nc(-c3cccc(C(F)(F)F)c3C)no2)c1` [compound 54, (5-Methyl-2-[1,2,3]triazol-2-yl-phenyl)-{(S)-2-[3-(2-methyl-3-trifluoromethyl-phenyl)-[1,2,4]oxadiazol-5-yl]-pyrrolidin-1-yl}-methanone], the half-inhibitory concentration (IC50) was determined as 0.216 µM in assay [1] and 0.046 µM in assay [2] (setting [3]).

With `CCOc1cnccc1-c1noc([C@@H]2CCCN2C(=O)c2cc(C)ccc2-n2nccn2)n1` [compound 55, {(S)-2-[3-(3-Ethoxy-pyridin-4-yl)-[1,2,4]oxadiazol-5-yl]-pyrrolidin-1-yl}-(5-methyl-2-[1,2,3]triazol-2-yl-phenyl)-methanone], the IC50 turned out to be 0.241 µM in assay [1] and 0.041 µM in assay [2] (setting [3]).

In the case of `CCOc1c(F)cccc1-c1noc([C@@H]2CCCN2C(=O)c2cc(C)ccc2-n2nccn2)n1` [compound 56, {(S)-2-[3-(2-Ethoxy-3-fluoro-phenyl)-[1,2,4]oxadiazol-5-yl]-pyrrolidin-1-yl}-(5-methyl-2-[1,2,3]triazol-2-yl-phenyl)-methanone], the IC50 in assay [1] stood at 0.016 µM; in assay [2] (setting [3]) it was 0.007 µM.

Consider `Cc1ccc(-n2nccn2)c(C(=O)N2CCC[C@H]2c2nc(-c3cn(C)c4ccccc34)no2)c1` [compound 57, {(S)-2-[3-(1-Methyl-1H-indol-3-yl)-[1,2,4]oxadiazol-5-yl]-pyrrolidin-1-yl}-(5-methyl-2-[1,2,3]triazol-2-yl-phenyl)-methanone], for which the IC50 turned out to be 0.007 µM in assay [1] and 0.004 µM in assay [2] (setting [3]).

As for `Cc1ccc(-n2nccn2)c(C(=O)N2CCC[C@H]2c2nc(-c3cnccc3C)no2)c1` [compound 58, {(S)-2-[3-(4-Methyl-pyridin-3-yl)-[1,2,4]oxadiazol-5-yl]-pyrrolidin-1-yl}-(5-methyl-2-[1,2,3]triazol-2-yl-phenyl)-methanone], the IC50 is above 5.04 µM in assay [1] and 0.536 µM in assay [2] (setting [3]).

For `COc1cccc(-c2noc([C@@H]3CCCN3C(=O)c3cc(C)ccc3-n3nccn3)n2)c1OC` [compound 59, {(S)-2-[3-(2,3-Dimethoxy-phenyl)-[1,2,4]oxadiazol-5-yl]-pyrrolidin-1-yl}-(5-methyl-2-[1,2,3]triazol-2-yl-phenyl)-methanone], the IC50 turned out to be 1.22 µM in assay [1] and 0.047 µM in assay [2] (setting [3]).

As to `Cc1ccc(-n2nccn2)c(C(=O)N2CCC[C@H]2c2nc(-c3cnn(C)c3)no2)c1` [compound 60, {(S)-2-[3-(1-Methyl-1H-pyrazol-4-yl)-[1,2,4]oxadiazol-5-yl]-pyrrolidin-1-yl}-(5-methyl-2-[1,2,3]triazol-2-yl-phenyl)-methanone], the IC50 is above 1.42 µM in assay [1] and 0.419 µM in assay [2] (setting [3]).

Consider `CCc1cnc(-c2noc([C@@H]3CCCN3C(=O)c3cc(C)ccc3-n3nccn3)n2)cc1C` [compound 61, {(S)-2-[3-(5-Ethyl-4-methyl-pyridin-2-yl)-[1,2,4]oxadiazol-5-yl]-pyrrolidin-1-yl}-(5-methyl-2-[1,2,3]triazol-2-yl-phenyl)-methanone], for which the values for the 50% inhibitory concentration (IC50) in assay [1] and in assay [2] (setting [3]) were 1.48 µM and 0.271 µM, respectively.

Regarding `Cc1ccc(-n2nccn2)c(C(=O)N2CCC[C@H]2c2nc(-c3cc(C)c(C)cn3)no2)c1` [compound 62, {(S)-2-[3-(4,5-Dimethyl-pyridin-2-yl)-[1,2,4]oxadiazol-5-yl]-pyrrolidin-1-yl}-(5-methyl-2-[1,2,3]triazol-2-yl-phenyl)-methanone], the IC50 is above 1.63 µM in assay [1] and 0.242 µM in assay [2] (setting [3]).

Take `Cc1ccc(-n2nccn2)c(C(=O)N2CCC[C@H]2c2nc(-c3ccc(C)c(C)n3)no2)c1` [compound 63, {(S)-2-[3-(5,6-Dimethyl-pyridin-2-yl)-[1,2,4]oxadiazol-5-yl]-pyrrolidin-1-yl}-(5-methyl-2-[1,2,3]triazol-2-yl-phenyl)-methanone]: the values for the IC50 in assay [1] and in assay [2] (setting [3]) were 1.42 µM and 0.361 µM, respectively.

As to `COc1cc(O)ccc1-c1noc([C@@H]2CCCN2C(=O)c2cc(C)ccc2-n2nccn2)n1` [compound 64, {(S)-2-[3-(4-Hydroxy-2-methoxy-phenyl)-[1,2,4]oxadiazol-5-yl]-pyrrolidin-1-yl}-(5-methyl-2-[1,2,3]triazol-2-yl-phenyl)-methanone], the 50% inhibitory concentration (IC50) in assay [1] came to 0.198 µM; in assay [2] (setting [3]), 0.052 µM.

For the molecule `Cc1ccc(-n2nccn2)c(C(=O)N2CCC[C@H]2c2nc(-c3cc(C)nc(C)c3)no2)c1` [compound 65, {(S)-2-[3-(2,6-Dimethyl-pyridin-4-yl)-[1,2,4]oxadiazol-5-yl]-pyrrolidin-1-yl}-(5-methyl-2-[1,2,3]triazol-2-yl-phenyl)-methanone], the IC50 worked out at 0.758 µM in assay [1] and 0.375 µM in assay [2] (setting [3]).

As to `COc1cc(-c2noc([C@@H]3CCCN3C(=O)c3cc(C)ccc3-n3nccn3)n2)cc(C)n1` [compound 66, {(S)-2-[3-(2-Methoxy-6-methyl-pyridin-4-yl)-[1,2,4]oxadiazol-5-yl]-pyrrolidin-1-yl}-(5-methyl-2-[1,2,3]triazol-2-yl-phenyl)-methanone], the IC50 in assay [1] amounted to 0.302 µM; in assay [2] (setting [3]), 0.155 µM.

As to `Cc1cc(CC(C)C)nc(-c2noc([C@@H]3CCCN3C(=O)c3cc(C)ccc3-n3nccn3)n2)c1` [compound 67, {(S)-2-[3-(6-Isobutyl-4-methyl-pyridin-2-yl)-[1,2,4]oxadiazol-5-yl]-pyrrolidin-1-yl}-(5-methyl-2-[1,2,3]triazol-2-yl-phenyl)-methanone], the concentration for half-maximal inhibition (IC50) was 1.25 µM in assay [1] and 0.333 µM in assay [2] (setting [3]).

Turning to `Cc1ccc(-n2nccn2)c(C(=O)N2CCC[C@H]2c2nc(-c3ccnc(C)c3)no2)c1` [compound 68, {(S)-2-[3-(2-Methyl-pyridin-4-yl)-[1,2,4]oxadiazol-5-yl]-pyrrolidin-1-yl}-(5-methyl-2-[1,2,3]triazol-2-yl-phenyl)-methanone], the concentration for half-maximal inhibition (IC50) in assay [1] is 6.67 µM; in assay [2] (setting [3]), 0.915 µM.

As for `COc1ccc(F)c(-c2noc([C@@H]3CCCN3C(=O)c3cc(C)ccc3-n3nccn3)n2)c1F` [compound 69, {(S)-2-[3-(2,6-Difluoro-3-methoxy-phenyl)-[1,2,4]oxadiazol-5-yl]-pyrrolidin-1-yl}-(5-methyl-2-[1,2,3]triazol-2-yl-phenyl)-methanone], the results for the IC50 in assay [1] and in assay [2] (setting [3]) were 1.84 µM and 0.163 µM, respectively.

On to `COc1cccc(-c2noc([C@@H]3CCCN3C(=O)c3cc(C)ccc3-n3nccn3)n2)c1Cl` [compound 70], for which the IC50 came out at 0.623 µM in assay [1] and 0.053 µM in assay [2].
